Results from ChEMBL document CHEMBL3734711, “Discovery of novel sphingosine kinase 1 inhibitors via structure-based hierarchical virtual screening” (Medchemcomm, 2015).
The source made the active and inactive calls. The calls are words filed in the database; no cut-off is given here.

Assays:
Sphingosine kinase 1 [1] = biological target: T1, Sphingosine kinase 1 (Homo sapiens, UniProt Q9NYA1); assay: Inhibition of human recombinant SphK1 at 50 uM preincubated for 5 mins followed by substrate addition measured for 60 mins by plate reader assay
T1 sequence (Q9NYA1 whole entry): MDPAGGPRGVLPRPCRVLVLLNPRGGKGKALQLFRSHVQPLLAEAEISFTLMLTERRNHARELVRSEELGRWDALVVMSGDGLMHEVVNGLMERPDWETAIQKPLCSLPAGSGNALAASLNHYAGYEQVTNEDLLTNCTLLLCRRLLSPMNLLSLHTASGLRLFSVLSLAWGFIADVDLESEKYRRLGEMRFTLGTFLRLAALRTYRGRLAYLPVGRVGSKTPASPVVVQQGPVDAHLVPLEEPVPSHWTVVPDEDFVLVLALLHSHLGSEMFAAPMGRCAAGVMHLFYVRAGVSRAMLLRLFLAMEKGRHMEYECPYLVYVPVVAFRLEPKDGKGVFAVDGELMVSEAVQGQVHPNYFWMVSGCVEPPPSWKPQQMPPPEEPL

[2] = biological target: T2, Sphingosine kinase 2 (Homo sapiens) (UniProt Q9NRA0); assay: Inhibition of human recombinant SphK2 at 500 uM preincubated for 5 mins followed by substrate addition measured for 60 mins by plate reader assay
T2 sequence (whole entry): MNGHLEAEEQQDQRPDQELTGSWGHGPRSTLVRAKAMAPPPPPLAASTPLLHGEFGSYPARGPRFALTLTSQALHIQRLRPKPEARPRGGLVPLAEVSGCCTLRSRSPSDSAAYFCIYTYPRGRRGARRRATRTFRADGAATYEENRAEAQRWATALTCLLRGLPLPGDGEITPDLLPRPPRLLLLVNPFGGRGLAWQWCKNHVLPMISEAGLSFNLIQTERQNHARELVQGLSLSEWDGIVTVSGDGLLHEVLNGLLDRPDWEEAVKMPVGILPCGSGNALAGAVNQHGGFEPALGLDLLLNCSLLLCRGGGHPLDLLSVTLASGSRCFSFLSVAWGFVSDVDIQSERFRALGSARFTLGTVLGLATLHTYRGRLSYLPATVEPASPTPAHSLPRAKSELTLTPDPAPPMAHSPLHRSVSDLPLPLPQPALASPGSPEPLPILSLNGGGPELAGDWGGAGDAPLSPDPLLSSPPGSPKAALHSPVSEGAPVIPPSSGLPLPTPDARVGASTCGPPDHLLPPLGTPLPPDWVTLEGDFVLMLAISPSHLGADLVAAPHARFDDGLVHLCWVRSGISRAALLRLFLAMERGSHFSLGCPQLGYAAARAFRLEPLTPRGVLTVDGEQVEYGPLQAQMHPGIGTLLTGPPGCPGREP

[3] = biological target: T2, Sphingosine kinase 2 (Homo sapiens); assay: Inhibition of human recombinant SphK2 at 50 uM preincubated for 5 mins followed by substrate addition measured for 60 mins by plate reader assay
Sphingosine kinase 1 [4] = biological target: T1, Sphingosine kinase 1; assay: Inhibition of human recombinant SphK1 preincubated for 5 mins followed by substrate addition measured for 60 mins by plate reader assay
Sphingosine kinase 2 = biological target: T3, Sphingosine kinase 2 (Homo sapiens, UniProt Q9NRA0); assay: Inhibition of human recombinant SphK2 preincubated for 5 mins followed by substrate addition measured for 60 mins by plate reader assay
T3 sequence (Q9NRA0 whole entry): T2 sequence (whole entry)

U-937 = assay: Antiproliferative activity against human U937 cells after 72 hrs by MTT assay; format: functional, cell-based

Row | inhibition (Sphingosine kinase 1 [1]) | inhibition [2] | inhibition [3] | IC50 (Sphingosine kinase 1 [4]) | IC50 (Sphingosine kinase 2) | Compound | Activity (U-937)
1 | > 60% | Active | Active | 23.1 µM | 17.1 µM | O=C(N/N=C/c1cccc(OCc2ccccc2)c1)c1cc(O)c(O)c(O)c1 | Dose-dependent effect
2 | – | – | – | – | 16.3 µM | CCCCCCCCCCCCC/C=C/[C@@H](O)[C@H](CO)N(C)C [DIMETHYLSPINGOSINE] | –
3 | > 60% | Active | Active | 61.6 µM | 62.6 µM | CCCOc1ccc(N2C(=O)CC(Nc3ccc(CCO)cc3)C2=O)cc1 (configuration not stated) | –
4 | > 60% | Active | Active | 40.5 µM | 31.3 µM | CCCCCCCCCCCCCC(=O)Nc1nc2ccccc2[nH]1 | –
